Results from patent US6342498B1, “Arylpiperazines as serotonin reuptake inhibitors and 5-HT1Dα antagonists” (Eli Lilly and Company, priority 1997, dated 2002).
Structures can show the parent of a compound that is named as a salt.

SMILES	melting point [°C]
COc1ccccc1N1CCN(CCCCCN2CC=C(c3c[nH]c4cc(F)ccc34)CC2)CC1 [Example 16, 1-(2-methoxyphenyl)-4-(5-(4-(6-fluoroindole-3-yl)-1,2,3,6-tetrahydropyridin-1-yl)pent-1-yl)piperazine]	69 to 71
COc1ccccc1N1CCN(CCNC(=O)CCN2CC=C(c3c[nH]c4cc(F)ccc34)CC2)CC1 [Example 1, N-(2-(4-(2-methoxyphenyl)piperazin-1-yl)eth-1-yl)-3-(4-(6-fluoroindol-3-yl)-1,2,3,6-tetrahydropyridin-1-yl)propanamide]	175 to 177
COc1ccccc1N1CCN(CCNC(=O)CCN2CC=C(c3c[nH]c4cc(Cl)ccc34)CC2)CC1 [Example 2, N-(2-(4-(2-methoxyphenyl)piperazin-1-yl)eth-1-yl)-3-(4-(6-chloroindol-3-yl)-1,2,3,6-tetrahydropyridin-1-yl)propanamide]	181 to 183
COc1ccccc1N1CCN(CCCCCCN2CCC(c3c[nH]c4cc(Cl)ccc34)CC2)CC1 (as salt: hydrochloride) [Example 21, 1-(2-methoxyphenyl)-4-(6-(4-(6-chloroindol-3-yl)-piperidin-1-yl)hex-1-yl)piperazine trihydrochloride]	185 to 187
COc1ccccc1N1CCN(CCCCCN2CCC(c3c[nH]c4cc(F)ccc34)CC2)CC1 (as salt: hydrochloride) [Example 19, 1-(2-methoxyphenyl) -4-(5-(4-(6-fluoroindole-3-yl) -piperidin-1-yl)pent-1-yl)piperazine trihydrochloride]	113 to 115
COc1ccccc1N1CCN(CCCCCCN2CCC(c3c[nH]c4cc(F)ccc34)CC2)CC1 (as salt: hydrochloride) [Example 22, 1-(2-methoxyphenyl)-4-(6-(4-(6-fluoroindol-3-yl)-piperidin-1-yl)hex-1-yl)piperazine trihydrochloride]	145 to 147
COc1ccccc1N1CCN(CCCCCN2CCC(c3c[nH]c4cc(Cl)ccc34)CC2)CC1 (as salt: hydrochloride) [Example 20, 1-(2-methoxyphenyl) -4-(5-(4-(6-chloroindole-3-yl) -piperidin-1-yl)pent-1-yl)piperazine trihydrochloride]	139 to 141
COc1ccccc1N1CCN(CCCCN2CC=C(c3c[nH]c4cc(Cl)ccc34)CC2)CC1	131 to 133

Second part, the compound after the results:

melting point [°C]	SMILES
126 to 128	COc1ccccc1N1CCN(CCCCCN2CC=C(c3c[nH]c4cc(Cl)ccc34)CC2)CC1 [Example 15, 1-(2-methoxyphenyl)-4-(5-(4-(6-chloroindole-3-yl)-1,2,3,6-tetrahydropyridin-1-yl)pent-1-yl)piperazine]
105 to 107	COc1ccccc1N1CCN(CCCCCCN2CC=C(c3c[nH]c4cc(F)ccc34)CC2)CC1 [Example 14, 1-(2-methoxyphenyl)-4-(6-(4-(6-fluoroindole-3-yl)-1,2,3,6-tetrahydropyridin-1-yl)hex-1-yl)piperazine]
91 to 95	COc1ccccc1N1CCN(CCNCCCN2CCC(c3c[nH]c4cc(Cl)ccc34)CC2)CC1 (as salt: hydrochloride) [Example 10, N-(2-(4-(2-methoxyphenyl)piperazin-1-yl)eth-1-yl)-N-3-(4-(6-chloroindol-3-yl)-piperidin-1-yl)prop-1-ylamine tetrahydrochloride]
78 to 80	COc1ccccc1N1CCN(CCNCCN2CC=C(c3c[nH]c4cc(Cl)ccc34)CC2)CC1 [Example 12, N-(2-(4-(2-methoxyphenyl)piperazin-1-yl)eth-1-yl), N-2-(4-(6-chloroindol-3-yl)-1,2,3,6-tetrahydropyridin-1-yl)eth-1-ylamine]
71 to 73	COc1ccccc1N1CCN(CCNCCCN2CC=C(c3c[nH]c4cc(Cl)ccc34)CC2)CC1 [Example 7, N-(2-(4-(2-methoxyphenyl)piperazin-1-yl)eth-1-yl)-N-3-(4-(6-chloroindol-3-yl)-1,2,3,6-tetrahydropyridin-1-yl)prop-1-ylamine]
82 to 84	COc1ccccc1N1CCN(CCNCCCN2CC=C(c3c[nH]c4cc(F)ccc34)CC2)CC1 [Example 6, N-(2-(4-(2-methoxyphenyl)piperazin-1-yl)eth-1-yl)-N3-(4-(6-fluoroindol-3-yl)-1,2,3,6-tetrahydropyridin-1-yl)prop-1-ylamine]
